Results on one molecule are retold here after paper PMC11474028, “Lipopeptide antibiotics disrupt interactions of undecaprenyl phosphate with UptA” (Proceedings of the National Academy of Sciences of the …, 2024).

This experiment concerns the target UptA (Bacillus subtilis, UniProt O31823). Kind of experiment: Native MS of phospholipid binding to UptA. Particulars: 4 µM UptA with 10 µM lipid (stated for a15:0-i15:0 lipids); mean of three independent replicates. The text has this: Proteins belonging to the DedA family are a widespread family of transporters and are proposed to flip diverse lipids, including carrier lipids and membrane phospholipids. We therefore probed the interaction of UptA with membrane phospholipids to understand whether the latter could modulate its function. For this purpose, we selected anionic phosphatidylglycerols (PG) and zwitterionic phosphatidylethanolamines (PE), representing the major classes of phospholipid headgroups found in B. subtilis ([41], [42]). We recorded mass spectra of solutions containing 4 µM UptA incubated with 10 µM a15:0-i15:0 PE and 10 µM a15:0-i15:0 PG (a15:0, anteiso-pentadecanoic acid; i15:0, iso-pentadecanoic acid). The fatty acid composition of these lipids closely mimics those of native B. subtilis lipids (see below). The resulting spectra display peaks corresponding to UptA in apo and lipid-bound forms in both cases (Fig. 4 A and B). […] We therefore hypothesize that UptA interacts more favorably with PG than with PE.
To verify the lipid binding preference of UptA with more native-like lipids, we prepared lipid extracts from B. subtilis membranes (Materials and Methods). We then incubate an aliquot of the resulting crude lipids (SI Appendix, Fig. S8) with UptA. The spectra yielded peaks assigned to UptA in complex with cardiolipins (~1,326 Da) and a range of phospholipids, predominantly 694 Da, 721 Da, 748 Da, and 776 Da species (Fig. 4 D and E). To identify these lipids, we performed tandem MS/MS, isolating the lipid species and subjecting it to collisional activation. […] The fatty acid fragments are mixed populations, predominantly 15:0-15:0, 15:0-17:0, 16:0-16:0, and 16:0-18:1 (SI Appendix, Fig. S9) which are the typical fatty acids from B. subtilis membrane phospholipids ([42]). We therefore conclude that UptA interacts more favorably with the anionic cardiolipins and phosphatidylglycerols than with the zwitterionic phosphatidylethanolamines in the membrane lipid extracts.
Detailed experimental procedures are provided in SI Appendix. Briefly, UptA (wild type and mutants) was expressed in E. coli C43(DE3) cells (Lucigen) with GFP fusion on the C-terminus and solubilized from the membrane fraction by n-dodecyl-β-D-maltopyranoside (DDM). After purification by affinity chromatography, the GFP was cleaved by TEV protease and removed, and UptA was further purified by size-exclusion chromatography in a buffer containing 20 mM Tris-HCl (pH 8.0), 200 mM NaCl, 0.02% DDM. Before measurements, proteins were buffer-exchanged into 0.05% LDAO, 200 mM ammonium acetate at the desired pH using a centrifugal buffer exchange device (Micro Bio-Spin 6, Bio-Rad). Stock solutions of lipids were prepared from chloroform/methanol solution by evaporating aliquots of known volume in a SpeedVac. After drying, the lipid films were weighed and resuspended to a final concentration of 0.5 mM in 200 mM ammonium acetate and 0.05% LDAO by vertexing. Stock solutions of 0.5 mM amphomycin, aspartocin D, daptomycin, polymyxin B, polymyxin E, and bacitracin were made in the same buffer. All experiments were repeated three times from newly prepared stock solutions. Native mass spectrometry was performed on a Q-Exactive hybrid quadrupole-Orbitrap mass spectrometer (Thermo Fisher Scientific, Bremen, Germany), and lipid identification was performed on an Orbitrap Eclipse Tribrid mass spectrometer (Thermo). […]
Lipid extracts from B. Subtilis
B. subtilis strain 168 (ATCC 23857) was cultivated in […] LB media at 37 °C until OD600 nm 1.2 under aurobic conditions. Cells were harvested by centrifugation at 4,000 g for 20 minutes and resuspended in 20 mM Tris-HCl (pH 8.0), 150 mM NaCl. Cells were lysed by 5-6 passes through a microfluidizer at 20,000 psi. The lysates were clarified by centrifugation at 4,000 g for 10 minutes, and the totoal membrane was pelleted at 120,000 g for 1 h. The membrane pellet was ressupended […]

UptA, sequence (O31823 whole entry): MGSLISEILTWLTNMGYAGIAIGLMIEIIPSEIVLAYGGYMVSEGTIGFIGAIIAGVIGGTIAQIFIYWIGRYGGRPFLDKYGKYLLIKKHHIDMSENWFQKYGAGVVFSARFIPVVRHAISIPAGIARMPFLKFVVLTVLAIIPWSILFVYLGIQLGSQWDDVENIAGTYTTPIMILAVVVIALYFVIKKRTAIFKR

Turning to `CC(C)=CCC/C(C)=C/CC/C(C)=C/CC/C(C)=C\CC/C(C)=C\CC/C(C)=C\CC/C(C)=C\CC/C(C)=C\CC/C(C)=C\CC/C(C)=C\CC/C(C)=C\COP(=O)(O)O` [C55-P, undecaprenyl phosphate], the “mean relative intensity of UptA in complex with phospholipid, comparison (in words)” value is “more intensely than any of these diacylglycerol phospholipids”.
